Reference: patent publication EP0813867B1, “Retroviral protease inhibitors” (priority 1990, dated 1992)
pEC50, pIC50: −log10 of the molar value. Read-outs that look alike come from different tables or passages of the source.

What was measured:
CEM cells = test: Intrinsic toxicity of the test compound in CEM cells without virus (MTT); type: cell-based; details: Table 14, medium without virus, 7 days
From the text: Methods 20, 309-321 (1988).

HIV-1 = test: HIV inhibition assay of acutely infected CEM cells (tetrazolium based colorimetric, MTT); details: Human immunodeficiency virus 1, CCRF-CEM, 168 h
Protocol: The HIV inhibition assay method of acutely infected cells is an automated tetrazolium based colorimetric assay essentially that reported by Pauwles et al, J. Virol. […] Assays were performed in 96-well tissue culture plates. CEM cells, a CD4^+ cell line, were grown in RPMI-1640 medium (Gibco) supplemented with a 10% fetal calf serum and were then treated with polybrene (2µg/ml). An 80 µl volume of medium containing 1 x 10^4 cells was dispensed into each well of the tissue culture plate. To each well was added a 100µl volume of test compound dissolved in tissue culture medium (or medium without test compound as a control) to achieve the desired final concentration and the cells were incubated at 37°C for 1 hour. A frozen culture of HIV-1 was diluted in culture medium to a concentration of 5 x 10^4 TCID50 per ml (TCID50 = the dose of virus that infects 50% of cells in tissue culture), and a 20µL volume of the virus sample (containing 1000 TCID50 of virus) was added to wells containing test compound and to wells containing only medium (infected control cells). Several wells received culture medium without virus (uninfected control cells). Likewise, the intrinsic toxicity of the test compound was determined by adding medium without virus to several wells containing test compound.
In experiments 2 and 4 the final concentrations of test compounds were 1, 10, 100 and 500 µg/ml. Either azidothymidine (AZT) or dideoxyinosine (ddI) was included as a positive drug control. […] DMSO was added to all control wells at an appropriate concentration.
Following the addition of virus, cells were incubated at 37°C in a humidified, 5% CO2 atmosphere for 7 days. Test compounds could be added on days 0, 2 and 5 if desired. On day 7, post-infection, the cells in each well were resuspended and a 100µl sample of each cell suspension was removed for assay. A 20µL volume of a 5 mg/ml solution of 3-(4,5-dimethylthiazol-2-yl)-2,5-diphenyltetrazolium bromide (MTT) was added to each 100µL cell suspension, and the cells were incubated for 4 hours at 27°C in a 5% CO2 environment. […] To each sample was added 100µl of 10% sodium dodecylsulfate in 0.01 N HCl to lyse the cells, and samples were incubated overnight. The absorbance at 590 nm was determined for each sample using a Molecular Devices microplate reader. Absorbance values for each set of wells is compared to assess viral control infection, uninfected control cell response as well as test compound by cytotoxicity and antiviral efficacy.

HIV protease = biological target: T1, HIV protease (Human immunodeficiency virus type 1 group M subtype B, UniProt P04585); test: biochemical; type: biochemical
T1 construct: HIV protease is diluted in the assay buffer to a final enzyme concentration of 12.3 nanomolar, based on a molecular weight of 10,780
Protocol: The enzyme method is described below. The substrate is 2-aminobenzoyl-Ile-Nle-Phe(p-NO2)-Gln-ArgNH2. The positive control is MVT-101 (Miller, M. et al, Science, 246, 1149 (1989)] The assay conditions are as follows:
The above described substrate is dissolved in DMSO, then diluted 10 fold in assay buffer. Final substrate concentration in the assay is 80 µM.
HIV protease is diluted in the assay buffer to a final enzyme concentration of 12.3 nanomolar, based on a molecular weight of 10,780.
The final concentration of DMSO is 14% and the final concentration of glycerol is 18%. The test compound is dissolved in DMSO and diluted in DMSO to 10x the test concentration; 10µl of the enzyme preparation is added, the materials mixed and then the mixture is incubated at ambient temperature for 15 minutes. The enzyme reaction is initiated by the addition of 40µl of substrate. The increase in fluorescence is monitored at 4 time points (0, 8, 16 and 24 minutes) at ambient temperature. Each assay is carried out in duplicate wells.

[1] = IC50, Table 13, 12.3 nanomolar enzyme, 80 µM substrate, pH 6.4, ambient temperature
[2] = IC50, Table 14, above-described enzyme assay
[3] = Table 13, 12.3 nanomolar enzyme, 80 µM substrate, pH 6.4, ambient temperature, read-out: IC50

## CCCCNC(=O)N(CC(C)C)C[C@@H](O)[C@H](Cc1ccccc1)NC(=O)[C@H](CC(N)=O)NC(=O)OCc1ccccc1
CEM cells
  TD50: 170 to 180 µM
HIV-1
  pEC50: 4.77

## CC(C)CCN(C[C@@H](O)[C@H](Cc1ccccc1)NC(=O)[C@H](CC(N)=O)NC(=O)OCc1ccccc1)C(=O)NC(C)(C)C (relative stereo) [Compound 5a, Butanediamide, N^1-[3-[[[(1,1-dimethylethyl)amino]carbonyl](3,3-dimethylpropyl)amino]-2-hydroxy-1-(phenylmethyl)propyl]-2-[(N-benzyloxycarbonyl)amio], [1S-[1R*(R*),2S*]]-]
HIV protease; Table 13, 12.3 nanomolar enzyme, 80 µM substrate, pH 6.4, ambient temperature
  pIC50: 7.74

## CC(C)CN(CC(O)C(Cc1ccccc1)NC(=O)C(CC(N)=O)NC(=O)c1ccc2ccccc2n1)C(=O)NC(C)(C)C (stereo not drawn) [Compound 1b, Butanediamide, N^1-[3-[[[(1,1-dimethylethyl)amino]carbonyl](2-methylpropyl)amino]-2-hydroxy-1-(phenylmethyl)propyl]-2-[(2-quinolinylcarbonyl)amino]-, [1S-[1R*(R*),2S*]]-]
HIV protease; [1]
  pIC50: 8.15
HIV protease; [2]
  pIC50: 8.15
CEM cells
  TD50: 16 µM
HIV-1
  pEC50: 8.00

## CC(C)CCN(C[C@@H](O)[C@H](Cc1ccccc1)NC(=O)[C@H](CC(N)=O)NC(=O)OCc1ccccc1)C(=O)NC(C)(C)C [Compound 2a, Butanediamide, N^1-[3-[[[(1,1-dimethylethyl)amino]carbonyl](3-methylbutyl)amino]-2-hydroxy-1-(phenylmethyl)propyl]-2-[(N-benzyloxycarbonyl)amino], [1S-[1R*(R*),2S*]]-]
HIV protease; [3]
  pIC50: 7.87

## CC(C)CCN(CC(O)C(Cc1ccccc1)NC(=O)C(CC(N)=O)NC(=O)c1ccc2ccccc2n1)C(=O)NC(C)(C)C (stereo not drawn) [Compound 2b, Butanediamide, N^1-[3-[[[(1,1-dimethylethyl)amino]carbonyl](3-methylbutyl)amino]-2-hydroxy-1-(phenylmethyl)propyl]-2-[(2-quinolinylcarbonyl)amino]-, [1S-[1R*(R*),2S*]]-]
HIV protease; [1]
  pIC50: 8.49

## CC(C)(C)NC(=O)N(Cc1ccc2ccccc2c1)C[C@@H](O)[C@H](Cc1ccccc1)NC(=O)[C@H](CC(N)=O)NC(=O)OCc1ccccc1 [Compound 3a, Butanediamide, N^1-[3-[[[(1,1-dimethylethyl)amino]carbonyl](2-naphthylmethyl)amino]-2-hydroxy-1-(phenylmethyl)propyl]-2-[(N-benzyloxycarbonyl)amino]-, [1S-[1R*(R*), 2S*]]-]
HIV protease; [3]
  pIC50: 7.51

## CC(C)(C)NC(=O)N(Cc1ccc2ccccc2c1)CC(O)C(Cc1ccccc1)NC(=O)C(CC(N)=O)NC(=O)c1ccc2ccccc2n1 (stereo not drawn) [Compound 3b, Butanediamide, N^1-[3-[[[(1,1-dimethylethyl)amino]carbonyl](2-naphthylmethyl)amino]-2-hydroxy-1-(phenylmethyl)propyl]-2-[(2-quinolinylcarbonyl)amino]-, [1S-[1R*(R*),2S*]]-]
HIV protease; [3]
  pIC50: 8.54

## CC(C)(C)NC(=O)N(CCc1ccccc1)CC(O)C(Cc1ccccc1)NC(=O)C(CC(N)=O)NC(=O)OCc1ccccc1 (stereo not drawn) [Compound 4a, Butanediamide, N^1-[3-[[[(1,1-dimethylethyl)amino]carbonyl](2-phenylethyl)amino]-2-hydroxy-1-(phenylmethyl)propyl]-2-[(N-benzyloxycarbonyl)amino]-, [1S-[1R*(R*),2S*]]-]
HIV protease; [3]
  pIC50: 7.15

## CC(C)(C)NC(=O)N(CCc1ccccc1)CC(O)C(Cc1ccccc1)NC(=O)C(CC(N)=O)NC(=O)c1ccc2ccccc2n1 (stereo not drawn) [Compound 4b, Butanediamide, N^1-[3-[[[(1,1-dimethylethyl)amino]carbonyl](2-phenylethyl)amino]-2-hydroxy-1-(phenylmethyl)propyl]-2-[(2-quinolinylcarbonyl)amino]-, [1S-[1R*(R*),2S*]]-]
HIV protease; [1]
  pIC50: 8.00
HIV protease; [2]
  pIC50: 8.00
CEM cells
  TD50: 13 µM
HIV-1
  pEC50: 7.55

## CC(C)CCN(CC(O)C(Cc1ccccc1)NC(=O)C(CC(N)=O)NC(=O)c1ccc2ccccc2n1)C(=O)NC(C)(C)C (stereo not drawn) [Compound 5b, Butanediamide, N^1-[3-[[[(1,1-dimethylethyl)amino]carbonyl](3,3-dimethylpropyl)amino]-2-hydroxy-1-(phenylmethyl)propyl]-2-[(2-quinolinylcarbonyl)amino]-, [1S-[1R*(R*),2S*]]-]
HIV protease; [3]
  pIC50: 8.43

## CC(C)CCN(CC(O)C(Cc1ccccc1)NC(=O)C(C)CS(C)(=O)=O)C(=O)NC(C)(C)C (stereo not drawn) [Compound 6, Propanamide, N-[3-[[[(1,1-dimethylethyl)amino]carbonyl](3-methylbutyl)amino]-2-hydroxy-1-(phenylmethyl)propyl]-2-methyl-3-(methylsulfonyl)-, [1S-[1R*(R*), 2S*]]-]
HIV protease; [3]
  pIC50: 7.54

## CC(=O)NCC(C)C(=O)NC(Cc1ccccc1)C(O)CN(CCC(C)C)C(=O)NC(C)(C)C (stereo not drawn) [Compound 7, Propanamide, 3-(acetylamino)-N-[3-[[[(11,-dimethylethyl)amino]carbonyl](3-methylbutyl)amino]-2-hydroxy-1-(phenylmethyl)propyl]-2-methyl-, [1S-[1R*(S*),2S*]]-]
HIV protease; [3]
  pIC50: 7.00

## COc1ccc(COC(=O)NC[C@@H](C)C(=O)N[C@@H](Cc2ccccc2)[C@H](O)CN(CCC(C)C)C(=O)NC(C)(C)C)cc1 [Compound 8, Propanamide, 3-(4-methoxybenzyloxy-carbonyl)amino-N-[3-[[[(11,-dimethylethyl)amino]carbonyl](3-methylbutyl)amino]-2-hydroxy-1-(phenylmethyl)propyl]-2-methyl-, [1S-[1R*(S*),2S*]]-]
HIV protease; [1]
  pIC50: 8.22

## NC(=O)CC(NC(=O)c1ccc2ccccc2n1)C(=O)NC(Cc1ccccc1)C(O)CN(Cc1ccc(F)cc1)C(=O)N1CCCC1 (stereo not drawn) [Compound 9, Butanediamide, N^1-[2-hydroxy-3-[(4-fluorophenylmethyl)(1-pyrrolidinylcarbonyl)amino]-1-(phenylmethyl)propyl]-2-[(2-quinolinylcarbonyl)amino]-, [1S-[1R*(R*),2S*]]-]
HIV protease; [3]
  pIC50: 8.15

## CC(C)CCN(C[C@@H](O)[C@H](Cc1ccccc1)NC(=O)[C@H](C)C(C)(C)C(N)=O)C(=O)NC(C)(C)C [Compound 10, Butanediamide, N^1-[3-[[[(1,1-dimethylethyl)amino]carbonyl](3-methylbutyl)amino]-2-hydroxy-1-(phenylmethyl)propyl]-2,3,3-trimethyl-, [1S-[1R*(2S*),2S*]]-]
HIV protease; [3]
  pIC50: 7.92

## CC(C)CCN(C[C@@H](O)[C@H](Cc1ccccc1)NC(=O)[C@H](C)C(C)(C)C(=O)O)C(=O)NC(C)(C)C [Compound 11, Butanoic acid, 4-[[3-[[[(1,1-dimethylethyl)amino]carbonyl] (3-methylbutyl)amino]-2-hydroxy-1-(phenylmethyl)propyl]amino-2,2,3-trimethyl-4-oxo-, [1S-[1R*(3S*), 2S*]]-]
HIV protease; [1]
  pIC50: 8.10

## CC(=O)N[C@H](C(=O)N[C@@H](Cc1ccccc1)[C@H](O)CN(CCC(C)C)C(=O)NC(C)(C)C)C(C)(C)C [Compound 12, Butaneamide,2-(acetylamino)-N-[3-[[[(1,1-dimethylethyl)amino]-carbonyl](3-methylbutyl)amino]-2-hydroxy-1-(phenylmethyl)propyl]-3,3-dimethyl-, [1S-[1R*(R*),2S*]]-]
HIV protease; [3]
  pIC50: 7.74

## CCCCNC(=O)N(CC(C)C)C[C@@H](O)[C@H](Cc1ccccc1)NC(=O)[C@H](CC(N)=O)NC(=O)c1ccc2ccccc2n1 [butanediamide N^1[3-[[[n-butylamino]carbonyl](2-methylpropyl)amino]-2-hydroxy-1-(phenylmethyl)propyl]-2-[(2-quinolinylcarbonyl)amino]-[1S-[1R*(R*), 2S*]]-.]
CEM cells
  TD50: 53 µM
HIV-1
  pEC50: 7.59
